What was measured:
[1] = test system: viral replication; conditions: cited from earlier work
[2] = test system: wild-type WSN-UdM virus; format: cell-based, influenza A virus

**Q.** With NC12CC3CC(CC(C3)C1)C2 [amantadine] as the compound, how does the “concentrations at which the drug selectively inhibits viral replication” value [1] read?
**A.** 0.1 to 5 µM

**Q.** And the “concentrations of nonspecific action (increase in pH of endosomes)” value [1]?
**A.** > 50 μM

**Q.** And the “effect on virus yield and size of plaques” value [2]?
**A.** markedly reduced
